Biological target: Transporter (Rattus norvegicus, UniProt Q63380)
Assay: Ligand Binding Assay
Procedure: Brains from male Sprague-Dawley rats were removed, dissected, and rapidly frozen. Ligand binding experiments were conducted in assay tubes containing radioligand, rat membrane tissue, and test compounds. Incubations were terminated by filtration with through GF/B filters. Results were analyzed using the Equilibrium Binding Data Analysis software (EBDA, Biosoft).

Transporter, sequence (Q63380 whole entry): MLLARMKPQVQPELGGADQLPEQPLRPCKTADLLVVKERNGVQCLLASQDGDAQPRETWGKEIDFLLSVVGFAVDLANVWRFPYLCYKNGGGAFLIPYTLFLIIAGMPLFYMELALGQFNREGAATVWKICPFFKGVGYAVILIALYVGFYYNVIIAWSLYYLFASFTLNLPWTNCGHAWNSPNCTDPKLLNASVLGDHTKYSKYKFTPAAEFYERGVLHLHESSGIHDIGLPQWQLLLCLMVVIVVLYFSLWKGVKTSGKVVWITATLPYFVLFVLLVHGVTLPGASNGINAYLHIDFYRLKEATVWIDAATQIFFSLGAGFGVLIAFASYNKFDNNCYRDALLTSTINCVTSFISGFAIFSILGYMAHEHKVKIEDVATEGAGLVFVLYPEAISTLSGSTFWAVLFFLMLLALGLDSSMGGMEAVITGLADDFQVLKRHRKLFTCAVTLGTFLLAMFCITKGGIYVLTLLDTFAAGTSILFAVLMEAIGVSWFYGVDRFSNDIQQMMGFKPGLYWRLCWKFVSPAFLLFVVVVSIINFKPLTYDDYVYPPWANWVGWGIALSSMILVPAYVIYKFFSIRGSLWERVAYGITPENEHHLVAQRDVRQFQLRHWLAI

Row | SMILES | Ki
1 | Cc1ccc([C@H]2C[C@@H]3CC[C@H]([C@H]2c2ncc(-c4cccc(Br)c4)s2)N3C)cc1 [5-(3-bromophenyl)-2-[(1R,2S,3S,5S)-8-methyl-3-(4-methylphenyl)-8-azabicyclo[3.2.1]octan-2-yl]-1,3-thiazole] | > 2000 nM
2 | Cc1ccc([C@H]2C[C@@H]3CC[C@H]([C@H]2c2ncc(-c4cccc([N+](=O)[O-])c4)s2)N3C)cc1 [2-[(1R,2S,3S,5S)-8-methyl-3-(4-methylphenyl)-8-azabicyclo[3.2.1]octan-2-yl]-5-(3-nitrophenyl)-1,3-thiazole] | > 4300 nM
3 | CN1[C@H]2CC[C@@H]1[C@@H](c1ncc(-c3ccc(Cl)c(Cl)c3)s1)[C@@H](c1ccc(Cl)cc1)C2 [2-[(1R,2S,3S,5S)-3-(4-chlorophenyl)-8-methyl-8-azabicyclo[3.2.1]octan-2-yl]-5-(3,4-dichlorophenyl)-1,3-thiazole] | > 2000 nM
4 | Cc1ccc([C@H]2C[C@@H]3CC[C@H]([C@H]2c2ncc(-c4ccc([N+](=O)[O-])cc4)s2)N3C)cc1 [2-[(1R,2S,3S,5S)-8-methyl-3-(4-methylphenyl)-8-azabicyclo[3.2.1]octan-2-yl]-5-(4-nitrophenyl)-1,3-thiazole] | > 2000 nM
5 | COc1ccc(-c2cnc([C@H]3[C@@H](c4ccc(C)cc4)C[C@@H]4CC[C@H]3N4C)s2)cc1 [5-(4-methoxyphenyl)-2-[(1R,2S,3S,5S)-8-methyl-3-(4-methylphenyl)-8-azabicyclo[3.2.1]octan-2-yl]-1,3-thiazole] | > 2000 nM
6 | COc1ccc(-c2cnc([C@H]3[C@@H](c4ccc(Cl)cc4)C[C@@H]4CC[C@H]3N4C)s2)cc1 [2-[(1R,2S,3S,5S)-3-(4-chlorophenyl)-8-methyl-8-azabicyclo[3.2.1]octan-2-yl]-5-(4-methoxyphenyl)-1,3-thiazole] | > 2000 nM
7 | CN1[C@H]2CC[C@@H]1[C@@H](c1ncc(-c3ccc([N+](=O)[O-])cc3)s1)[C@@H](c1ccc(Cl)cc1)C2 [2-[(1R,2S,3S,5S)-3-(4-chlorophenyl)-8-methyl-8-azabicyclo[3.2.1]octan-2-yl]-5-(4-nitrophenyl)-1,3-thiazole] | > 2000 nM
8 | Cc1ccc([C@H]2C[C@@H]3CC[C@H]([C@H]2c2ncc(-c4ccc(Cl)cc4)s2)N3C)cc1 [5-(4-chlorophenyl)-2-[(1R,2S,3S,5S)-8-methyl-3-(4-methylphenyl)-8-azabicyclo[3.2.1]octan-2-yl]-1,3-thiazole] | > 2000 nM
9 | CN1[C@H]2CC[C@@H]1[C@@H](c1ncc(-c3ccc(Cl)cc3)s1)[C@@H](c1ccc(Cl)cc1)C2 [5-(4-chlorophenyl)-2-[(1R,2S,3S,5S)-3-(4-chlorophenyl)-8-methyl-8-azabicyclo[3.2.1]octan-2-yl]-1,3-thiazole] | > 2000 nM
10 | Cc1ccc([C@H]2C[C@@H]3CC[C@H]([C@H]2c2ncc(-c4ccc(Cl)c(Cl)c4)s2)N3C)cc1 [5-(3,4-dichlorophenyl)-2-[(1R,2S,3S,5S)-8-methyl-3-(4-methylphenyl)-8-azabicyclo[3.2.1]octan-2-yl]-1,3-thiazole] | > 2000 nM
11 | CN1[C@H]2CC[C@@H]1[C@@H](c1ncc(-c3cccc([N+](=O)[O-])c3)s1)[C@@H](c1ccc(Cl)cc1)C2 [2-[(1R,2S,3S,5S)-3-(4-chlorophenyl)-8-methyl-8-azabicyclo[3.2.1]octan-2-yl]-5-(3-nitrophenyl)-1,3-thiazole] | > 2000 nM
12 | COc1ccc(-c2cnc([C@H]3[C@@H](c4ccc(Cl)cc4)C[C@@H]4CC[C@H]3N4C)s2)cc1OC [2-[(1R,2S,3S,5S)-3-(4-chlorophenyl)-8-methyl-8-azabicyclo[3.2.1]octan-2-yl]-5-(3,4-dimethoxyphenyl)-1,3-thiazole] | > 2000 nM
13 | CN1[C@H]2CC[C@@H]1[C@@H](c1ncc(-c3ccc(F)cc3)s1)[C@@H](c1ccc(Cl)cc1)C2 [2-[(1R,2S,3S,5S)-3-(4-chlorophenyl)-8-methyl-8-azabicyclo[3.2.1]octan-2-yl]-5-(4-fluorophenyl)-1,3-thiazole] | > 2000 nM
14 | CN1[C@H]2CC[C@@H]1[C@@H](c1ncc(-c3cccc(Br)c3)s1)[C@@H](c1ccc(Cl)cc1)C2 [5-(3-bromophenyl)-2-[(1R,2S,3S,5S)-3-(4-chlorophenyl)-8-methyl-8-azabicyclo[3.2.1]octan-2-yl]-1,3-thiazole] | > 2000 nM
15 | CN1[C@H]2CC[C@@H]1[C@@H](c1ncc(-c3ccc(Br)cc3)s1)[C@@H](c1ccc(Cl)cc1)C2 [5-(4-bromophenyl)-2-[(1R,2S,3S,5S)-3-(4-chlorophenyl)-8-methyl-8-azabicyclo[3.2.1]octan-2-yl]-1,3-thiazole] | > 2000 nM
16 | COc1ccc(-c2cnc([C@H]3[C@@H](c4ccc(C)cc4)C[C@@H]4CC[C@H]3N4C)s2)cc1OC [5-(3,4-dimethoxyphenyl)-2-[(1R,2S,3S,5S)-8-methyl-3-(4-methylphenyl)-8-azabicyclo[3.2.1]octan-2-yl]-1,3-thiazole] | > 2000 nM
17 | Cc1ccc([C@H]2C[C@@H]3CC[C@H]([C@H]2c2ncc(-c4ccc(F)cc4)s2)N3C)cc1 [5-(4-fluorophenyl)-2-[(1R,2S,3S,5S)-8-methyl-3-(4-methylphenyl)-8-azabicyclo[3.2.1]octan-2-yl]-1,3-thiazole] | > 2000 nM

Biological target: Sodium-dependent noradrenaline transporter (Homo sapiens, UniProt P23975)
Assay: Ligand Binding Assay

Sodium-dependent noradrenaline transporter, sequence (P23975 whole entry): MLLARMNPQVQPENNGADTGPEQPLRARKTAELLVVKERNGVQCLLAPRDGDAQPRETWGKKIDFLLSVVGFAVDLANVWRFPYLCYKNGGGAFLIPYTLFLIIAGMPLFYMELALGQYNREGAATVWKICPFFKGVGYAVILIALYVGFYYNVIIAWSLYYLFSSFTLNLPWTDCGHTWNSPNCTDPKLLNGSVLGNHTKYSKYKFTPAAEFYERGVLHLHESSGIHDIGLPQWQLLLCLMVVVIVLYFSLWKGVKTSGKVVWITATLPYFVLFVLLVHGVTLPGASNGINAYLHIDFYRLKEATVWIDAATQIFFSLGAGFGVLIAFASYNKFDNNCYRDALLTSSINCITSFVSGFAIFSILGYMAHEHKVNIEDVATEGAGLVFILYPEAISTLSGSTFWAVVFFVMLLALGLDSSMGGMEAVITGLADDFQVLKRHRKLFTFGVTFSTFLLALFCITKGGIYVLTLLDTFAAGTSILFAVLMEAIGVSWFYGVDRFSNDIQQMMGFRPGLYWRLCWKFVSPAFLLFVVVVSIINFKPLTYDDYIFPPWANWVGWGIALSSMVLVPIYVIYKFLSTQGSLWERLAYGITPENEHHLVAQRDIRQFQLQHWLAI

Row | SMILES | EC50
18 | COc1ccc(-c2cnc([C@H]3[C@@H](c4ccc(C)cc4)C[C@@H]4CC[C@H]3N4C)s2)cc1 [5-(4-methoxyphenyl)-2-[(1R,2S,3S,5S)-8-methyl-3-(4-methylphenyl)-8-azabicyclo[3.2.1]octan-2-yl]-1,3-thiazole] | 1810 nM
19 | Cc1ccc([C@H]2C[C@@H]3CC[C@H]([C@H]2c2ncc(-c4ccc(Cl)c(Cl)c4)s2)N3C)cc1 [5-(3,4-dichlorophenyl)-2-[(1R,2S,3S,5S)-8-methyl-3-(4-methylphenyl)-8-azabicyclo[3.2.1]octan-2-yl]-1,3-thiazole] | 4000 nM
20 | CN1[C@H]2CC[C@@H]1[C@@H](c1ncc(-c3ccccc3)s1)[C@@H](c1ccc(Cl)cc1)C2 [2-[(1R,2S,3S,5S)-3-(4-chlorophenyl)-8-methyl-8-azabicyclo[3.2.1]octan-2-yl]-5-phenyl-1,3-thiazole] | 750 nM

Reference: BindingDB's records for doi:10.1021/jm0703035 (Research Triangle Institute, 2007)
